According to ChEMBL document CHEMBL1158817, “Hyrtioerectines A-C, cytotoxic alkaloids from the red sea sponge hyrtioserectus” (J Nat Prod, 2005):
Converted amounts (≈) assume the structure as drawn.

What follows are compounds tested on HeLa (assay: Cytotoxicity against human HeLa cells by Fukuzawa's method).
Assay type: functional, cell-based

`O=C(O)[C@H](O)Cc1c[nH]c2ccc(O)cc12` [HYRTIOERECTINE C] and `C[C@H]1N[C@@H](C(=O)O)Cc2c1[nH]c1ccc(O)cc21` [HYRTIOERECTINE B] are within 1.5-fold of each other in IC50: 4.5 µg/mL (≈ 20.3 µM) for the first, 5 µg/mL (≈ 20.3 µM) for the second.

`O=C(O)C(=O)c1c(-c2c[nH]c3cc(O)ccc23)ncc2[nH]c3ccc(O)cc3c12` [HYRTIOERECTINE A] was tested, and the IC50 was 10 µg/mL (≈ 25.8 µM).
